This is an account of results in US20180312493A1, “Antibiotic Compounds, Pharmaceutical Formulations Thereof And Methods And Uses Therefor” (Simon Fraser University, priority 2015, published 2018).

Converted amounts (≈) assume the structure as drawn.

For orientation: MIC means the smallest concentration in the dilution series that meets the test's criterion for growth inhibition.

The subject of the assay is S. aureus (ATCC29213). Kind of assay: In vitro susceptibility, broth microdilution (MIC). The following applies: Staphylococcus aureus; S. aureus ATCC29213; 18-24 h, 37 C; read-out: Antimicrobial activity (MIC) S. aureus ATCC29213. Format: cell-based. An excerpt:
Epidemic methicillin resistant S. aureus (MRSA) strain sequenced at the Sanger Centre (MRSA252, NRS71) was obtained from NARSA (Network on Antimicrobial Resistance in S. aureus). Methicillin sensitive S. aureus (ATCC 29213 and 25923), methicillin resistant S. aureus (ATCC BAA-1762), and Salmonella typhimurium (ATCC BAA-185) were obtained from ATCC, The Global Bioresource Center. Acinetobacter baumannii (ATCC 19606 and ATCC 17978), Klebsiella pneumonia (C238), vancomycin resistant Enterococci #2 (2010A) (VRE#2), MRSA (USA400, MW2) and Pseudomonas aeruginosa (PA0-1) were obtained from the laboratory of Dr B. B. Finlay at the University of British Columbia (Vancouver, Canada).
The antimicrobial activities of PK inhibitor candidates were determined using the 96-well microtiter standard 2-fold serial broth microdilution method as described by CLSI (formerly NCCLS) with the various gram-positive and gram-negative bacteria species mentioned above. Bacteria from a single colony were grown, overnight in either BHI Broth (VRE), mueller hinton broth (S. aureus 29213; MRSA USA400, A. baumannii 19606, MRSA BAA-1762) or L-broth (P. aeruginosa, S. typhimurium, K. pneumonia and A. baumannii 17978). […] Culture plates were incubated for 18-24 h at 37° C., and optical density at 600 nm (OD600) was measured using a Benchmark Plus™ microplate spectrophotometer (Bio-Rad™). The absorbance control values for the series containing CAMHB and inhibitor were subtracted as background from the corresponding infected wells. Minimal inhibitory concentration (MIC) was defined as the lowest concentration of test compound leading to complete inhibition of cell growth in relation to compound-free control wells as determined by optical density. Vancomycin, methicillin and ciprofloxicin were used as reference compounds. All assays were run in triplicate or duplicate. Experiments were replicated at least twice to verify reproducibility using the above conditions.
Background: Broth dilution looks for growth in wells or tubes with falling amounts of substance.
As for `OC(c1c(CCc2cc(Cl)cc(Cl)c2)[nH]c2cc(Br)ccc12)(C(F)(F)F)C(F)(F)F` [Compound 15, 2-(6-Bromo-2-(3,5-dichlorophenethyl)-1H-indol-3-yl)-1,1,1,3,3,3-hexafluoropropan-2-ol], the MIC worked out at 1 µg/mL (≈ 1.87 µM). The value for `CNC(=O)c1c(/C=C/c2ccc(Cl)cc2)[nH]c2cc(Br)ccc12` [Compound 20, (E)-6-Bromo-2-(4-chlorostyryl)-N-methyl-1H-indole-3-carboxamide] was 64 µg/mL (≈ 164 µM). Turning to `O=C(NCCN1CCN(C(=O)COCC(=O)N2CCN(CCNC(=O)c3c(/C=C/c4ccc(Cl)cc4)[nH]c4cc(Br)ccc34)CC2)CC1)c1c(/C=C/c2ccc(Cl)cc2)[nH]c2cc(Br)ccc12` [Compound 56, (E)-N,N′-((4,4′-(2,2′-oxybis(acetyl))bis(piperazine-4,1-diyl))bis(ethane-2,1-diyl))bis(6-bromo-2-((E)-4-chlorostyryl)-1H-indole-3-carboxamide)], the MIC is more than 64 µg/mL. The figure for `NC(=O)N1CCN(CCNC(=O)c2c(-c3cc4cc(Cl)ccc4[nH]3)[nH]c3cc(Br)ccc23)CC1` [Compound 132, 6-bromo-N-(2-(4-carbamoylpiperazin-1-yl)ethyl)-5′-chloro-1H,1′H-2,2′-biindole-3-carboxamide] is more than 64 µg/mL; for `CS(=O)(=O)NC(=O)CNC(=O)c1c(-c2cc3cc(Cl)ccc3[nH]2)[nH]c2cc(Br)ccc12` [Compound 151, 6-bromo-5′-chloro-N-(2-(methylsulfonamido)-2-oxoethyl)-1H,1′H-[2,2′-biindole]-3-carboxamide] it is more than 64 µg/mL. The value for `O=C(Nc1ccc(Cl)cc1)Nc1nc2ccccc2s1` [Compound 162, 1-(benzo[d]thiazol-2-yl)-3-(4-chlorophenyl)urea] was more than 64 µg/mL. The value for `O=C(Nc1ccccn1)Nc1nc2cc(Br)ccc2s1` [Compound 163, 1-(5-bromobenzo[d]thiazol-2-yl)-3-(pyridin-2-yl)urea] was more than 64 µg/mL; that for `O=C(Nc1ccc(Cl)cc1)Nc1nc2ccccc2o1` [Compound 164, 1-(benzo[d]oxazol-2-yl)-3-(4-chlorophenyl)urea] was more than 64 µg/mL.

As for `COc1ccc2sc(NC(=O)Nc3ccc(Cl)cc3)nc2c1` [Compound 165, 1-(4-chlorophenyl)-3-(5-methoxybenzo[d]thiazol-2-yl)urea], the MIC was more than 64 µg/mL.

For `O=C(Nc1ccc(Cl)cc1)Nc1nc2cc([N+](=O)[O-])ccc2s1` [Compound 167, 1-(4-chlorophenyl)-3-(5-nitrobenzo[d]thiazol-2-yl)urea], the MIC was more than 64 µg/mL. For the compound `CCOC(=O)c1ccc2sc(NC(=O)Nc3ccc(Cl)cc3)nc2c1` [Compound 171, ethyl 2-(3-(4-chlorophenyl)ureido)benzo[d]thiazole-5-carboxylate], the MIC was more than 64 µg/mL.

For the compound `O=C(Nc1ccc(Cl)cc1)Nc1nc2cc(Cl)ccc2o1` [Compound 177, 1-(5-chlorobenzo[d]oxazol-2-yl)-3-(4-chlorophenyl)urea], the minimal inhibitory concentration (MIC) is more than 64 µg/mL. With `O=C(Nc1nc2cc(Cl)ccc2o1)NC1CCCCC1` [Compound 178, 1-(5-chlorobenzo[d]oxazol-2-yl)-3-cyclohexylurea], the minimum inhibitory concentration (MIC) is more than 64 µg/mL. `O=C(Nc1ccc(Cl)cc1)Nc1nc2cc(F)ccc2o1` [Compound 179, 1-(4-chlorophenyl)-3-(5-fluorobenzo[d]oxazol-2-yl)urea]: the MIC is more than 64 µg/mL. In the case of `O=C(Nc1nc2cc(F)ccc2o1)NC1CCCCC1` [Compound 180, 1-cyclohexyl-3-(5-fluorobenzo[d]oxazol-2-yl)urea], the MIC is more than 64 µg/mL.

As to `O=C(O)C1CNCCN1C(=O)c1c(-c2cc3cc(Cl)ccc3[nH]2)[nH]c2cc(Br)ccc12` (stereo not drawn) [Compound 225, 1-(6-bromo-5′-chloro-1H,1′H-[2,2′-biindole]-3-carbonyl)piperazine-2-carboxylic Acid], the MIC is more than 64 µg/mL. Regarding `COC(=O)[C@@H]1CN(CCNC(=O)c2c(-c3cc4cc(Cl)ccc4[nH]3)[nH]c3cc(Br)ccc23)CCN1C(=O)OCc1ccccc1` [Compound 226, 1-benzyl 2-methyl (S)-4-(2-(6-bromo-5′-chloro-1H,1′H-[2,2′-biindole]-3-carboxamido)ethyl)piperazine-1,2-dicarboxylate], the minimal inhibitory concentration (MIC) is more than 64 µg/mL. In the case of `COC(=O)[C@@H]1CN(CCNC(=O)c2c(-c3cc4cc(Cl)ccc4[nH]3)[nH]c3cc(Br)ccc23)CCN1` [Compound 227, Methyl (S)-4-(2-(6-bromo-5′-chloro-1H,1′H-[2,2′-biindole]-3-carboxamido)ethyl)piperazine-2-carboxylate], the MIC is more than 64 µg/mL.
